Laboratory results published in patent US20220041623A1, “INDOLE MACROCYCLIC DERIVATIVE, PREPARATION METHOD THEREOF AND APPLICATION THEREOF IN MEDICINE” (JIANGSU HENGRUI MEDICINE CO., LTD., priority 2018, published 2022).

Columns and labels:
MCL-1 protein = biological target: T1, MCL-1 protein (Homo sapiens, UniProt Q07820); assay: MCL-1 protein binding experiment (HTRF, MCL-1/Bim)
T1 construct: Bim peptide bought from R&D, 3526/1 NA
Method: The following method was used to determine the binding ability of the compound of the present invention to MCL-1 protein. The experimental method is briefly described as follows.
MCL-1 inhibitors can bind to MCL-1 protein to prevent the binding of MCL-1 to Bim protein. The experiment evaluates the binding ability of MCL-1 inhibitor to MCL-1 protein by detecting the binding of MCL-1 to Bim protein through HTRF method, and the activity of the compound was evaluated according to the Ki value.
The mixture was incubated at room temperature for 2 hours, followed by the detection of fluorescence signals at 620 nm and 665 nm by PHERAstar. The data was processed by GraphPad software.

AMO-1 cells = assay: Cell proliferation experiment (intracellular ATP, CellTiter-Glo), AMO-1; type: cell-based; details: Homo sapiens, AMO1, 72 h; AMO-1 cells, incubated 3 days, CellTiter-Glo; read-out: AMO-1 IC50
Method: (§1) The following method evaluates the inhibition effect of the compound of the present invention on the proliferation of AMO-1 and MV-4-11 cells according to IC50 value by detecting intracellular ATP content. The experimental method is briefly described as follows.
1. AMO-1, human bone marrow plasmacytoma (Nanjing Cobioer Biosciences Co., Ltd., CBP60242)
(§2) AMO-1 cells were cultured in RPMI1640 medium (containing 20% FBS), and MV-4-11 cells were cultured in IMDM medium (containing 10% FBS). The cells were passaged for 2 to 3 times a week, with a passage ratio of 1:4 or 1:6. During the passage, the cells were transferred to a centrifuge tube and centrifuged at 1200 rpm for 3 minutes. The supernatant was discarded, and fresh medium was added to resuspend the cells. […] 100 μL of complete medium was added to the periphery of the 96-well plate. The plate was incubated in an incubator for 24 hours (37° C., 5% CO2).
(§3) The test sample was diluted to 20 mM with DMSO, and then diluted to 9 concentrations by diluting in 4-fold gradient. Blank and control wells were set. 5 μL of the test compound solution formulated as gradient concentration was added to 95 μL of fresh medium. 10 µL of the above drug-containing medium solution was added to the plate. The plate was incubated in an incubator for 3 days (37° C., 5% CO2). In the 96-well cell culture plate, 50 μL of CellTiter-Glo reagent was added to each well, and the plate was left to stand in the dark at room temperature for 5 to 10 minutes. The chemiluminescence signal value was read in PHERAstar, and the data was processed by GraphPad software.

MV-4-11 cells = assay: Cell proliferation experiment (intracellular ATP, CellTiter-Glo), MV-4-11; type: cell-based; details: Homo sapiens, MV4-11, 72 h; MV-4-11 cells, incubated 3 days, CellTiter-Glo; read-out: MV-4-11 IC50
Method: as §1, §2, §3

CYP2C9 = biological target: T2, CYP2C9 (Homo sapiens, UniProt P11712); assay: Inhibition of human liver microsomal P450 subenzyme CYP2C9; type: in vitro ADME; details: human liver microsomes, diclofenac metabolic site, 30 minutes incubation; read-out: 2C9 IC50
T2 construct: Human liver microsomes (Corning Gentest, Cat No. 452161, Lot No. 6123001, 33 Donors); tissue Corning Gentest 452161; host or cells: human liver microsomes, pool of 33 donors
Method: (§4) The inhibition effect of the compound of the present invention on the enzymatic activity of human liver microsomal P450 subenzymes CYP2C9 and 2C19 was determined by the following experimental method.
(§5) 6. CYP probe substrate for 2C9 (Diclofenac/4 μM, SIGMA, Cat No. D6899-10G) and CYP probe substrate for 2C19 ((S)-Mephenytoin/20 μM, J&K Scientific Ltd., CatNo. 303768); positive control inhibitor for 2C9 ([…], SIGMA, Cat No. 526-08-9) and positive control inhibitor for 2C19 (Ticlopidine, SIGMA, Cat No. T6654-1G).
(§6) 100 mM PBS buffer solution was formulated. 2.5 mg/mL microsome solution, 15 mM MgCl2 solution and 5 mM NADPH solution were formulated with the buffer solution. 30 mM stock solution was diluted with DMSO into a serial solution I with concentrations of 10 mM, 3 mM, 1 mM, 0.3 mM, 0.1 mM, 0.03 mM, […] and 0 mM. The above serial solution I was diluted for 200 times with the phosphate buffer solution (PBS) to obtain a serial test solution II (150, 50, 15, 5, 1.5, 0.15, 0.015, 0 μM). […]
(§7) The data were calculated by Graphpad Prism to obtain the IC50 values of the compound for the diclofenac metabolic site of CYP2C9 and (S)-mephenytoin metabolic site of 2C19. which are shown in Table 3.

2C19 = biological target: T3, 2C19 (Homo sapiens, UniProt P33261); assay: Inhibition of human liver microsomal P450 subenzyme CYP2C19; type: in vitro ADME; details: human liver microsomes, (S)-mephenytoin metabolic site, 30 minutes incubation
T3 construct: Human liver microsomes (Corning Gentest, Cat No. 452161, Lot No. 6123001, 33 Donors); tissue Corning Gentest 452161; host or cells: human liver microsomes, pool of 33 donors
Method: as §4, §5, §6, §7

T1 sequence (Q07820 171-327): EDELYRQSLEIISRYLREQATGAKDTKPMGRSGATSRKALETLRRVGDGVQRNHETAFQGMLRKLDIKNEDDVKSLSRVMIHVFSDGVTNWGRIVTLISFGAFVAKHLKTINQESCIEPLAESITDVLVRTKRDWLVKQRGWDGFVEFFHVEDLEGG
T2 sequence (P11712 whole entry): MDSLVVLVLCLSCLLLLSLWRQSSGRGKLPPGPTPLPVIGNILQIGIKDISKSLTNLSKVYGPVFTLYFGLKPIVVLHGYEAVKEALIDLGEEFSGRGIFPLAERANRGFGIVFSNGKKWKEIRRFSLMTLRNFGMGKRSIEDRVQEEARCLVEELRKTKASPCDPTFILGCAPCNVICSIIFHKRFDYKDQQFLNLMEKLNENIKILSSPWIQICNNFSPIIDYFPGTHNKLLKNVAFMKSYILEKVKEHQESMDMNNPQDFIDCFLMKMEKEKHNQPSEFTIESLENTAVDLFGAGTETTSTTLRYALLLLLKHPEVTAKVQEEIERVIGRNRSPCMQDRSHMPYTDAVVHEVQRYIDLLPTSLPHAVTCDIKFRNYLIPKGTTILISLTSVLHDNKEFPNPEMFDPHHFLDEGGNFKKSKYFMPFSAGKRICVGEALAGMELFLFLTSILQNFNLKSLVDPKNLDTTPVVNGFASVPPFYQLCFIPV
T3 sequence (P33261 whole entry): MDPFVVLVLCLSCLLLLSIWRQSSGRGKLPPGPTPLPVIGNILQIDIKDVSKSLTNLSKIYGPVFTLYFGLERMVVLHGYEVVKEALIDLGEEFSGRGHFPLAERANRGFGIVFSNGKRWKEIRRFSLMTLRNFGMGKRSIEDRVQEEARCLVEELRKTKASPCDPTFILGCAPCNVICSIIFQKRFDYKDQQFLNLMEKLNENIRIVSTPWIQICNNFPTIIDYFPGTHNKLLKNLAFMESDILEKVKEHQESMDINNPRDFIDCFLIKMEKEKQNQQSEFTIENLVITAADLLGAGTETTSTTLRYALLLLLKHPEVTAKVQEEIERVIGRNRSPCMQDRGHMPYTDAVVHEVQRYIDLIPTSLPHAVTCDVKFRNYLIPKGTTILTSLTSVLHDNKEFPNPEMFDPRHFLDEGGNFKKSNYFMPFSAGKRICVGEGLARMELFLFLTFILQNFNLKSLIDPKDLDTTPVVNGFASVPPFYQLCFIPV

Work on `Cc1c(C(=O)O)n2c3ccc(Cl)c(c13)-c1c(nn(C)c1C)CSCc1cc(n(C)n1)CSc1cc3c(c(c1)OCCC2)CCC3` (single isomer, unassigned) [Example 13-1, (Ra)-17-Chloro-5,13,14,22-tetramethyl-28-oxa-2,9-dithia-5,6,12,13,24-pentaazaheptacyclo[27.6.1.1^4,7.0^11,15.0^16,21.0^20,24.0^30,34]heptatriaconta-1(36),4(37),6,11,14,16,18,20,22,29,34-undecaene-23-carboxylic acid] yielded an inhibition at up to 10 µM (MCL-1 protein; HTRF MCL-1/Bim binding, initial concentration 10 μM, read-out: Maximum inhibition rate (%)) of 100%, a Ki (MCL-1 protein; HTRF, 0.1 nM His-MCL-1, 2.5 nM bio-Bim, room temperature) of 0.16 nM and an IC50 (AMO-1 cells) of 26 nM. It also gave an IC50 (MV-4-11 cells) of 26 nM, an IC50 (CYP2C9) of 16600 nM and an IC50 (2C19) of over 30000 nM.
